These results are taken from patent publication US6350741B1, “Inhibitors of interleukin-1β converting enzyme” (Vertex Pharmaceutical, Inc., priority 1996, dated 2002).

Data set [1] in a line: In vivo bioavailability determination (oral dosing to rats). The conditions noted are these: rat. The protocol:
In vivo Bioavailability Determination
The drugs (10-100 mg/kg) were dosed orally to rats (10 mL/kg) in ethanol/PEG/water, β-cyclodextrin, labrosol/water or cremophor/water. Blood samples were drawn from the carotid artery at 0.25, 0.50, 1, 1.5, 2, 3, 4, 6, and 8 hours after dosing, centrifuged to separate plasma and stored at −70° C. until analyzed. Aldehyde concentrations were determined using HPLC/MS. Pharmacokinetic analysis of data was performed by non-linear regression using RStrip (MicroMath Software, UT). Drug availability values may be determined as follows: (AUC of drug after oral prodrug dosing/AUC of drug after i.v. dosing of drug)×(dose i.v./dose p.o.)×100%.

Another data set has as its system IL-1β. The data set is described as follows: LPS-induced IL-1β production in mice. In kind it is in vivo, mouse. The following applies: PO @ 100 mg/kg, compound given 1 hour relative to LPS challenge. The procedure:
In vivo Acute Assay for Efficacy as Anti-inflammatory Agent
LPS-Induced IL-1β Production
Efficacy is evaluated in CD1 mice (n is 6 per condition, for example) challenged with LPS (20 mg/kg IP). The test compounds are prepared in olive oil:DMSO:ethanol (90:5:5) and administered by IP injection one hour after LPS. Blood is collected seven hours after LPS challenge. Serum IL-1β levels are measured by ELISA.
Compounds may also be administered by oral gavage to assess absorption.
We obtained inhibition data in Table 5 using the methods described in Example 12. Efficacy for Prodrugs in LPS-Induced IL-1β Production in Mice. Time of compound administration relative to time of LPS challenge was 1 hour. Dose of compound was PO @ 100 mg/kg.

The Cmax is the highest concentration seen after dosing. Regarding “(3S)-2,5-Dioxo-3-(Isoquinolin-3-oyl)amino-2,3,4,5-tetrahyo-1H-1-benzazepine-N-((2RS, 3S)-2-benzyloxy-5-oxo-tetrahydrofuran-3-yl)-1-acetamide [Compound 16b]”, the “blood levels of drug when dosed orally” value in data set [1] (oral prodrug dosing) is “significant blood levels of drug”. The Cmax in data set [1] (oral, dose 50 mg/kg, aldehyde (drug) concentration after prodrug dosing) turned out to be 6100 ng/mL. Further, the “% Inhibition of IL-1β” value with IL-1β was 53%.
